This note sets out measurements from patent US11857638B2, “Quinone-containing conjugates” (PROMEGA CORPORATION, priority 2018, dated 2024).

In one assay the test system is luciferase. Briefly: Activity as a substrate for luciferase. The class given is biochemical. The following applies: D-luciferin derivatized on the 6′ hydroxyl with TMQ linker. An excerpt: (§1) This property may provide an additional advantage in ADCs where it is critical that payload is not released outside of target cells. The observations are as follows. When D-luciferin is derivatized on the 6′ hydroxyl by addition of the TMQ linker, its activity as a substrate for luciferase is blocked (PBI-4312), but free D-luciferin that is fully active with luciferase is readily released

The next assay concerns the target human diaphorase (Homo sapiens, UniProt P15559). Nature of the assay: Non-cellular reductive release of luciferin (luciferin detection reagent with reductase and NADH). In kind it is biochemical. The note with it: after 1 hour, FIG. 3.
Excerpt: as §1
[drawing 143] from a luciferin-TMQ derivative when subjected to reducing conditions inside or outside of a cell. However, release of D-luciferin from a protein-TMQ-luciferin conjugate by an extracellular reductive mechanism was substantially diminished compared to luciferin-TMQ. In other words, the protein moiety of the conjugate stabilizes the luciferin payload against reductive release from the TMQ linker in a non-cellular environment. Non-cellular reducing conditions include an aqueous reducing agent solution (e.g. DTT) or a reductase reaction mixture (FIG. 3). This was true for two conjugates with a luciferin payload as well as a luciferin-TMQ conjugate with bovine serum albumin (BSA). Whereas the reaction conditions produced substantial amounts of light with PBI-4312 (>900,000 RLU after 1 hour), only minimal signals were produced from similar amounts of the protein conjugates (<800 RLUs after 1 hour). […]

Chain of human diaphorase (P15559 whole entry): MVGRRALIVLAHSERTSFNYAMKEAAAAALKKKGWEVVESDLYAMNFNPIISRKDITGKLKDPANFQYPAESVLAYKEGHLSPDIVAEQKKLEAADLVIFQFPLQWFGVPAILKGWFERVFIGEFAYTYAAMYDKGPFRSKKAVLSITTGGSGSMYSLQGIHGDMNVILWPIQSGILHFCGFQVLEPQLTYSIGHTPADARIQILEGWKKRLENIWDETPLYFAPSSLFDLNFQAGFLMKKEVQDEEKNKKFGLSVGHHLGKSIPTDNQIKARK

With `CC1=C(C)C(=O)C(C(C)(C)CC(=O)N(C)CCN(C)C(=O)Oc2ccc3nc(C4=N[C@@H](C(=O)O)CS4)sc3c2)=C(C)C1=O` [PBI-4312], the “activity as a substrate for luciferase” value in the assay with luciferase is on record as “blocked”. In addition, at human diaphorase, the “light produced (luciferin luminescence)” value is reported as > 900,000 RLU.
